Results: PMC12888920, “MMP-9 regulates disulphide isomerase activity of TGM2 to enhance fusion glycoprotein-mediated syncytium formation of respiratory syncytial virus” (Protein & Cell, 2025)

Experiments:
RSV A2 = assay: Suppression of RSV progeny viral titer (FFA, 72 hpi) in HEp-2 cells; type: cell-based, Respiratory syncytial virus; settings: 0.2 and 1 MOI
Description: Figure 2. MMP-9 regulates late-stage RSV infection. (A) Time-of-addition assay design (left). HEp-2 cells were treated with metalloproteinase inhibitors under three regimens: “Full-time” (2 h pretreatment + continuous exposure), “Entry” (viral attachment phase only), or “Post-entry” (≥ 2 hpi). Cells infected with RSV A2 (MOI = 1) were analyzed for cytopathic effect inhibition at 72 hpi versus DMSO controls. mean ± SD, n = 3. (B) No inhibition of RSV F/G/SH pseudovirus entry by doxycycline hyclate or JNJ0966 (5 µmol/L). mean ± SD, n = 3. (C) Temporal sensitivity analysis (left). Viral RNA levels (22 hpi) in HEp-2 cells treated with 5 µmol/L inhibitors at defined intervals: pre-infection (−2–0 h), entry (0–2 h), or post-entry (2–16 h) phases (right). mean ± SD, n = 3. (D) Multicycle replication kinetics. […] (F) Dose-dependent suppression of RSV progeny (MOI = 0.2/1) by inhibitors (72 hpi), quantified by FFA. mean ± SD, n = 3. […]
To evaluate the effects of the compounds on RSV assembly and release, we treated HEp-2 cells with the inhibitors at 10 hpi (the onset of virion assembly) or 16 hpi (the onset of virion release) following RSV infection ([Malhi et al., 2021]). Supernatants were collected at 22 hpi for viral titer quantification. […] Furthermore, at 72 hpi, viral titers were quantified following infection with varying doses of RSV (0.2 and 1 MOI).

RSV F/G/SH pseudovirus = RSV F/G/SH pseudovirus entry assay (luciferase); type: cell-based, Respiratory syncytial virus; settings: 5 µmol/L, HEp-2, 48 hpi
Description: Figure 2. MMP-9 regulates late-stage RSV infection. (A) Time-of-addition assay design (left). HEp-2 cells were treated with metalloproteinase inhibitors under three regimens: “Full-time” (2 h pretreatment + continuous exposure), “Entry” (viral attachment phase only), or “Post-entry” (≥ 2 hpi). Cells infected with RSV A2 (MOI = 1) were analyzed for cytopathic effect inhibition at 72 hpi versus DMSO controls. mean ± SD, n = 3. (B) No inhibition of RSV F/G/SH pseudovirus entry by doxycycline hyclate or JNJ0966 (5 µmol/L). mean ± SD, n = 3. (C) Temporal sensitivity analysis (left). Viral RNA levels (22 hpi) in HEp-2 cells treated with 5 µmol/L inhibitors at defined intervals: pre-infection (−2–0 h), entry (0–2 h), or post-entry (2–16 h) phases (right). mean ± SD, n = 3. (D) Multicycle replication kinetics. Intracellular RSV RNA (fusion gene copies) in HEp-2 cells treated with 5 µmol/L inhibitors at indicated time points (4–144 hpi). mean ± SD, n = 3. (E) Viral assembly/release inhibition assay. Supernatant viral titers at 22 hpi after post-entry treatment (10/16 hpi) (right). mean ± SD, n = 3. (F) Dose-dependent suppression of RSV progeny (MOI = 0.2/1) by inhibitors (72 hpi), quantified by FFA. mean ± SD, n = 3. […] The results are representatively shown with three random experiments. The error bars indicate the mean ± SD of three technical replicates (n = 3). […]

## COc1ccccc1Nc1nc(-c2sc(NC(C)=O)nc2C)cs1 [JNJ0966]
RSV A2
  inhibition of RSV replication (viral titers): dose-dependent inhibition
RSV F/G/SH pseudovirus
  inhibition of RSV F/G/SH pseudovirus entry: No inhibition

## Doxycycline hyclate
RSV A2
  inhibition of RSV replication (viral titers): dose-dependent inhibition
RSV F/G/SH pseudovirus
  inhibition of RSV F/G/SH pseudovirus entry: No inhibition
